Type in all cases: cell-based
Assay [1] addresses T1, human GPR40 (Homo sapiens (Human), UniProt O14842). The assay is described as follows: FLIPR assay, agonist-induced calcium mobilization in GPR40/CHO NFAT BLA cells. On the procedure: (§1) Human and mouse GPR40 stable cell-lines were generated in CHO cells stably expressing NFAT BLA (Beta-lactamase). A human GPR40 stable cell-line was generated in HEK cells stably expressing the aequorin expressing reporter. The expression plasmids were transfected using lipofectamine (Life Technologies) following manufacturer's instructions. Stable cell-lines were generated following drug selection.
FLIPR (Fluorimetric Imaging Plate Reader, Molecular Devices) assays were performed to measure agonist-induced calcium mobilization of the stable clones. For the FLIPR assay, one day before assay, GPR40/CHO NFAT BLA cells were seeded into black-wall-clear-bottom 384-well plates (Costar) at 1.4×10e4 cells/20 μL medium/well. The cells were incubated with 20 μl/well of the assay buffer (HBSS, 0.1% BSA, 20 mM HEPES, 2.5 mM probenecid, pH 7.4) containing 8 μM fluo-4, AM, 0.08% pluronic acid at room temperature for 100 minutes. Fluorescence output was measured using FLIPR. Compounds were dissolved in DMSO and diluted to desired concentrations with assay buffer. 13.3 μL/well of compound solution was added.
(In general: A change in cytosolic calcium serves as a functional read-out for many receptors and channels.)

Assay [2] concerns the target T1, human GPR40. The assay is described as follows: Inositol Phosphate Turnover (IP1) Assay 2 in HEK cells stably expressing human GPR40. The following applies: compound acoustically transferred. The method, then:
as §1
(§2) The assay is performed in 384-well format. HEK cells stably expressing human GPR40 are plated at 15,000 cells per well in growth medium (DMEM/10% fetal calf serum). Cell plates are then incubated 16 hours at 37 degrees in a 5% CO2 incubator.
Measurement of Inositol Phosphate Turnover (IP1) is performed using the CisBio IP-One kit (Part number 62IPAPEB). After the 16 hour incubation, the cells are washed with HEPES buffer and 10 ul of stimulation buffer (prepared as described in the kit) is added to each well. In a separate plate, compounds are diluted in DMSO (400-fold over the final concentration in the assay well) and 25 nl is acoustically transferred to the appropriate well in the assay cell plate. The plates are then incubated for 60 minutes at 37 degrees. […] The plates are then read in a Perkin Elmer EnVision or equivalent reader able to measure FRET. […]

Assay [3] addresses T1, human GPR40. Nature of the assay: Inositol Phosphate Turnover (IP1) Assay 1 in HEK cells stably expressing human GPR40. The following applies: compound transferred via pocket tip. The method, then: as §1, §2
Measurement of Inositol Phosphate Turnover (IP1) is performed using the CisBio IP-One kit (Part number 62IPAPEB). After the 16 hour incubation, the cells are washed with HEPES buffer and 10 ul of stimulation buffer (prepared as described in the kit) is added to each well. In a separate plate, compounds are diluted in DMSO (400-fold over the final concentration in the assay well) and 25 nl is transferred via pocket tip to the appropriate well in the assay cell plate. The plates are then incubated for 60 minutes at 37 degrees. 10 ul of detection buffer (also prepared as described in the IP-One kit) is added to each well and the plates are incubated for 60 minutes in the dark. The plates are then read in a Perkin Elmer EnVision or equivalent reader able to measure FRET. Fluorescent ratio of emission at 665 and 620 nm is then converted to IP1 concentration by back calculating from an IP1 standard curve prepared at the time of the assay.

T1 sequence (O14842 whole entry): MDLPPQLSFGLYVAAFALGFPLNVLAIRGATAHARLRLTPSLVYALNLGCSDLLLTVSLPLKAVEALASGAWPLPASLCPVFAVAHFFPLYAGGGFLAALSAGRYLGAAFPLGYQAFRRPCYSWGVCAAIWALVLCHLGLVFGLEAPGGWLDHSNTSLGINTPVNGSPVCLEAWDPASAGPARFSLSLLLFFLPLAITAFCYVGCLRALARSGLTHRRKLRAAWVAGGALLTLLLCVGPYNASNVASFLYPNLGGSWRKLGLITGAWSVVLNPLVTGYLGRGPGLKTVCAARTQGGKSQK

As for `Cc1cccc(C)c1-c1cccc(C2Cc3cc(CCC(=O)O)ccc3O2)c1` (racemic) [Example 18], the half-maximal effective concentration (EC50) at human GPR40 [1] worked out at 1220 nM.
Take `COc1cc(-c2ccc(CC3Cc4ccc([C@H](C5CC5)[C@H](C)C(=O)O)cc4O3)c(F)c2)ccn1` (single isomer, unassigned) [Example 5]: on human GPR40 [2], the concentration giving a half-maximal response (EC50) was determined as 35 nM.
Still for that read-out and setting: then `COc1cc(-c2ccc(CC3Cc4ccc([C@H](C5CC5)[C@H](C)C(=O)O)cc4O3)c(F)c2)ccn1` (single isomer, unassigned) [Example 6], with 37 nM.
Consider `COc1cc(C)c(-c2cccc(C3Cc4cc(CCC(=O)O)ccc4O3)c2)c(C)c1` (single isomer, unassigned) [Example 16], for which the results for the EC50 at human GPR40 [1] and on human GPR40 [3] were 624 nM and 5870 nM, respectively.
On the same counts, the results for `COc1cc(C)c(-c2cccc(C3Cc4cc(CCC(=O)O)ccc4O3)c2)c(C)c1` (single isomer, unassigned) [Example 17] are 4320 nM and 3940 nM.
Regarding `COc1ccc(F)c(-c2ccc(-c3cc4ccc([C@H](C5CC5)[C@H](C)C(=O)O)cc4o3)cc2)c1` [Example 1, (2S,3R)-3-cyclopropyl-3-(2-(2′-fluoro-5′-methoxy-[1,1′-biphenyl]-4-yl)benzofuran-6-yl)-2-methylpropanoic acid], the midpoint of the response on human GPR40 [3], the EC50, lay at 66 nM.
Regarding `COc1ccc(F)c(-c2ccc(-c3cc4ccc([C@@H](CC(=O)O)C5CC5)cc4o3)nc2)c1` [Example 2], a half-maximal effect on human GPR40 [3] (EC50) was put at 215 nM.
On the same count and under the same terms, then `COc1ccc(F)c(-c2ccc(C3Cc4ccc([C@H](C5CC5)[C@H](C)C(=O)O)cc4O3)cc2)c1` (stereo partly drawn) [Example 3, (2S,3R)-3-cyclopropyl-3-(2-(2′-fluoro-5′-methoxy-[1,1′-biphenyl]-4-yl)-2,3-dihydrobenzofuran-6-yl)-2-methylpropanoic acid], with 105 nM; and `COc1ccc(F)c(-c2ccc(C3Cc4ccc([C@@H](CC(=O)O)C5CC5)cc4O3)nc2)c1` (some centres unmarked) [Example 4], with 311 nM.
For `Cc1cccc(C)c1-c1cccc(-c2cc3cc(CCC(=O)O)ccc3o2)c1` [Example 7, 3-(2-(2′,6′-dimethyl-[1,1′-biphenyl]-3-yl)benzofuran-5-yl)propanoic acid], the EC50 at human GPR40 [1] turned out to be 203 nM; on human GPR40 [3], 3220 nM.
`O=C(O)CCc1ccc2oc(-c3ccc(C(F)(F)F)cc3)cc2c1` [Example 8]: the concentration for a half-maximal effect (EC50) at human GPR40 [1] is 20900 nM.
For the compound `COc1cc(C)c(-c2cccc(-c3cc4cc(CCC(=O)O)ccc4o3)c2)cc1F` [Example 9], the concentration giving a half-maximal response (EC50) on human GPR40 [1] was determined as 815 nM; on human GPR40 [3], 3690 nM.
Regarding `COc1cc(C)c(-c2cccc(-c3cc4cc(CCC(=O)O)ccc4o3)c2)c(C)c1` [Example 10], the EC50 on human GPR40 [1] was found to be 540 nM.
As for `COc1c(F)cc(-c2cccc(-c3cc4cc(CCC(=O)O)ccc4o3)c2)c(Cl)c1F` [Example 11], the EC50 worked out at 1190 nM on human GPR40 [1] and 4580 nM at human GPR40 [3].
The matching figures for `Cc1cc(C)c(-c2cccc(-c3cc4cc(CCC(=O)O)ccc4o3)c2)c(F)c1` [Example 12]: 716 nM and over 10000 nM.
The matching figures for `Cc1cc(F)cc(C)c1-c1cccc(-c2cc3cc(CCC(=O)O)ccc3o2)c1` [Example 13]: 306 nM and 6210 nM.
The matching figures for `O=C(O)CCc1ccc2oc(-c3cccc(-c4c(Cl)cccc4Cl)c3)cc2c1` [Example 14]: 726 nM and over 10000 nM.
For the compound `COc1cc(C)c(-c2cccc(C3Cc4cc(CCC(=O)O)ccc4O3)c2)c(C)c1` (centres unmarked) [Example 15], the half-maximal effective concentration (EC50) on human GPR40 [1] was found to be 1490 nM.

What is called EC50 is the concentration at which the effect is half-maximal.
